Consider 5 molecules from patent US5330741A, “Long-wavelength water soluble chlorin photosensitizers useful for photodynamic therapy and diagnosis of tumors” (The Regents of the University of California, priority 1992, dated 1994).

Each structure is given as a SMILES string. Where two headings read alike, the source gives them in different places.

One data set in a line: Stability of compounds. It counts as physicochemical. The following applies: decomposes to purpurin-18 methyl ester (3) and polar baseline material.
In a further data set the test system is cell killing. The following applies: cited from earlier work; for activity in photodynamic therapy: in vitro conditions; for photosensitized cell killing: low intensity of red light.
A short description of the next data set: Water solubility. It counts as physicochemical.
A short description of data set [1]: Long wavelength molar extinction coefficient. It counts as physicochemical. The following applies: in methanol, at 660 nm. The protocol: Lysyl-chlorin-p6 was prepared by treatment of purpurin 18 methyl ester (obtained from chlorophyll-a) with lysine in a mixture of dichloromethane, pyridine, and water. It was purified using a Waters Associate's C18 SepPak cartridge. Reversed phase analytical high-performance liquid chromatography (HPLC) indicated the product to consist of 60% lysyl chlorin-p6 and 40% chlorin-p6 based on equal absorbance at 403 nm. This mixture is termed "LCP". The long wavelength molar extinction coefficient of lysyl-chlorin-p6 in methanol was 39,600 at 660 nm.

The test system of the next data set is tumor. Conditions: cited from earlier work.
A further data set has as its system normal skin. The following applies: comparable drug and light doses; cited from earlier work.

With `C=Cc1c(C)c2cc3nc(c(C(=O)O)c4[nH]c(cc5nc(cc1[nH]2)C(C)=C5CC)c(C)c4C(=O)NCCCC)[C@@H](CCC(=O)OC)[C@@H]3C` [(VII), chlorin-p6-6-N-butylamide-7-methyl ester], the stability entry in “Stability of compounds” is “not very stable and readily decomposed”.

For `C=Cc1c(C)c2cc3nc(c(C(=O)O)c4[nH]c(cc5nc(cc1[nH]2)C(C)=C5CC)c(C)c4C(=O)O)[C@@H](CCC(=O)O)[C@@H]3C` [chlorin-p6], in the data set on cell killing, the “activity in photodynamic therapy” value was “active in photodynamic therapy” and the photosensitized cell killing result is “potent photosensitizers which promote cell killing”.

For `C=Cc1c(C)c2cc3nc(c(C(=O)O)c4[nH]c(cc5nc(cc1[nH]2)C(C)=C5CC)c(C)c4C(=O)NCCCCC(N)C(=O)O)[C@@H](CCC(=O)OC)[C@@H]3C` (stereo partly shown) [(II), chlorin-p6 6-N^ε -lysylamide-7-methyl ester], the solubility in water entry in “Water solubility” is on record as “well soluble in water”. Besides, in data set [1], the “long wavelength molar extinction coefficient” value is given as 39,600.

As to `C=Cc1c(C)c2cc3nc(c4c5[nH]c(cc6nc(cc1[nH]2)C(C)=C6CC)c(C)c5C(=O)OC4=O)[C@@H](CCC(=O)O)[C@@H]3C` [Purpurin-18], in the data set on cell killing, the “activity in photodynamic therapy” value is recorded as “active in photodynamic therapy” and the photosensitized cell killing entry is recorded as “potent photosensitizers which promote cell killing”.

In the case of `C=Cc1c(C)c2cc3nc(c(CC(=O)N[C@@H](CC(=O)[O-])C(=O)[O-])c4[nH]c(cc5nc(cc1[nH]2)C(C)=C5CC)c(C)c4C(=O)[O-])[C@@H](CCC(=O)[O-])[C@@H]3C.[Na+].[Na+].[Na+].[Na+]` [MACE, mono-L-aspartyl-chlorin e6], the tumor cures result was “ineffective at inducing tumor cures” in the data set on tumor (24 hours between drug administration and light); “PDT induced tumor cures were obtained” in the data set with tumor (administered 4-6 hours prior to light exposure). For the same molecule, the “level of PDT induced normal skin damage vs HpD” value in the data set with normal skin is “significantly lesser”.
